According to PMC9436924, “A gene cluster in Ginkgo biloba encodes unique multifunctional cytochrome P450s that initiate ginkgolide biosynthesis” (Nature Communications, 2022):

What was measured:
GbLPS = target: T1, GbLPS (Ginkgo biloba, UniProt Q947C4); test: expression in tobacco leaves, GC-MS of products; assay type: cell-based; settings: substrate made in situ with CfDXS and CfGGPPS
T1 construct: gene LPS; transiently expressed in Nicotiana benthamiana leaves, plastidial; (in yeast a truncated, codon-optimised MBP fusion was used)
T1 sequence (Q947C4 60-873): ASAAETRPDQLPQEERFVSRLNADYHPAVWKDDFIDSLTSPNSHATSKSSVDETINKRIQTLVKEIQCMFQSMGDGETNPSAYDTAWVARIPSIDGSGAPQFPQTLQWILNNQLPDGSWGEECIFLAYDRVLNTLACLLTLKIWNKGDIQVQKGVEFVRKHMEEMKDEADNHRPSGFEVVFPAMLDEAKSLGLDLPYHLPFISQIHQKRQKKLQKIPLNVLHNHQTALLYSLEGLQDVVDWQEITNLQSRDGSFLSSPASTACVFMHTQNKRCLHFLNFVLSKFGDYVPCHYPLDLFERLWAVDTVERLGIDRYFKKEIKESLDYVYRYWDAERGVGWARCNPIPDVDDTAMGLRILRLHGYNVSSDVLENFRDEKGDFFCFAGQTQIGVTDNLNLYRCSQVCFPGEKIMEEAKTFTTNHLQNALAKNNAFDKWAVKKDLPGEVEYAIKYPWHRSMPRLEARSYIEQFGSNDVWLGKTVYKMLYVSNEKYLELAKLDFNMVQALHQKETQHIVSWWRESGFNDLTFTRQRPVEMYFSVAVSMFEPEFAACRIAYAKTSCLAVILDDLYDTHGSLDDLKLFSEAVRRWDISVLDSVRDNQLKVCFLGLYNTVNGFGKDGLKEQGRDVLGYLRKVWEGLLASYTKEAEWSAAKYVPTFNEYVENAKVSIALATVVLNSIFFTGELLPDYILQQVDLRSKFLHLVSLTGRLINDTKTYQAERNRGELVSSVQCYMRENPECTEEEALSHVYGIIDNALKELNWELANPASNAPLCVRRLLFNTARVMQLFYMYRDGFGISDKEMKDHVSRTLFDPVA

GbCYP720B31 = target: T2, GbCYP720B31 (Ginkgo biloba, UniProt Z9PDJ7KIF4); test: pathway co-expression in tobacco and yeast, LC-HRMS, NMR of product glucosides; assay type: cell-based; settings: proposed substrate made in situ by upstream enzymes, free form not detected
T2 construct: G. biloba cDNA, gene on chromosome 4; expressed in Nicotiana benthamiana and Saccharomyces cerevisiae; GenBank numbers ON759313-ON759329 printed only as a collective set
T2 sequence (Z9PDJ7KIF4 1-483): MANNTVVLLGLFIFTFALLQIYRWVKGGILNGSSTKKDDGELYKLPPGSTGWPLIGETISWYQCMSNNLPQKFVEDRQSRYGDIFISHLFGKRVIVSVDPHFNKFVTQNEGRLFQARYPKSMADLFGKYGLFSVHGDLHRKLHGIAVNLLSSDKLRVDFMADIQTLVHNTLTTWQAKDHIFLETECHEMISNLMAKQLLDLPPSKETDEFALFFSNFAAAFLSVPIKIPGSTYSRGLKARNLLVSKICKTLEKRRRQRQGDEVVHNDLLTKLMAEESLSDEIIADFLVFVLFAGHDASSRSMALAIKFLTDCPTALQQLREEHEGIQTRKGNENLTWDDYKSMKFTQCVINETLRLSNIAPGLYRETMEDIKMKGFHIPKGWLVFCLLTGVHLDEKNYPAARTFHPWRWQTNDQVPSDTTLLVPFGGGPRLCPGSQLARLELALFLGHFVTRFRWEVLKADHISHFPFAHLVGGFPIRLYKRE

SMILES | expression in tobacco leaves, GC-MS of products (GbLPS) | pathway co-expression in tobacco and yeast, LC-HRMS, NMR of product glucosides (GbCYP720B31)
CC(C)=CCC/C(C)=C/CC/C(C)=C/CC/C(C)=C/COP(=O)(O)OP(=O)(O)O [geranylgeranyl pyrophosphate] | levopimaradiene synthase (GbLPS) converts GGPP to diterpene hydrocarbon levopimaradiene | 
CC(=CC(=O)O)C(CCc1cc(O)c(C(C)C)cc1O)C(C)(C)C (centres unmarked) [ginkgosinoic acid C] |  | we propose that GbCYP720B31 hydroxylates ginkgosinoic acid C at position C20
